From ChEMBL document CHEMBL1134421, “Anticancer properties for 4,4'-dihydroxybenzophenone-2,4-dinitrophenylhydrazone (A-007)/3,7-diaminophenothiazin-5-ium double salts” (Bioorg Med Chem Lett, 2001)
Converted amounts (≈) assume the structure as drawn.

Legend:
Breast cancer cell line = test: Tested for anticancer activity against human breast cancer; type: functional, cell-based
[1] = Tested for anticancer activity against human lung cancer (NSCLC); type: functional
Melanoma cell = test: Tested for anticancer activity against human melanoma; type: functional, cell-based
Homo sapiens = species on record: Homo sapiens; test: Tested against normal human peripheral blood dendritic cells, expressed as IC50; type: functional, cell-based
Ovarian cancer cell line = test: Tested for anticancer activity against human ovarian cancer; type: functional, cell-based
Rattus norvegicus = species on record: Rattus norvegicus; test: Tested for diffusion of compound into rat skin receptor fluid, at a dose of 0.05 mg; type: functional
[2] = Homo sapiens, Melanoma cell, read-out: IC50

SMILES: Cc1cc2nc3ccc(N(C)C)cc3[s+]c2cc1N.O=[N+]([O-])c1ccc(NN=C(c2ccc(O)cc2)c2ccc(O)cc2)c([N+](=O)[O-])c1.[Cl-]
- IC50 (Breast cancer cell line): 1.5 µg/mL
- IC50 [1]: 3 µg/mL
- IC50 (Melanoma cell; [2]): 4 µg/mL

SMILES: COc1cccc2c1C(=O)c1c(O)c3c(c(O)c1C2=O)C[C@@](O)(C(=O)CO)C[C@@H]3O[C@H]1C[C@H](N)[C@H](O)[C@H](C)O1 [DOXORUBICIN]
- IC50 (Breast cancer cell line): 0.9 µg/mL (≈ 1.66 µM)
- IC50 [1]: > 30 µg/mL
- IC50 (Melanoma cell; [2]): > 5 µg/mL

SMILES: O=[N+]([O-])c1ccc(NN=C(c2ccc(O)cc2)c2ccc(O)cc2)c([N+](=O)[O-])c1 [SIVIFENE]
- IC50 (Homo sapiens): > 10 µg/mL
- IC50 (Breast cancer cell line): > 10 µg/mL
- IC50 (Ovarian cancer cell line): 9 µg/mL (≈ 22.8 µM)
- IC50 [1]: 4 µg/mL (≈ 10.1 µM)
- IC50 (Melanoma cell; [2]): > 10 µg/mL

SMILES: Nc1ccc2nc3ccc(N)cc3[s+]c2c1.O=[N+]([O-])c1ccc(NN=C(c2ccc(O)cc2)c2ccc(O)cc2)c([N+](=O)[O-])c1.[Cl-]
- IC50 (Breast cancer cell line): 0.9 µg/mL
- IC50 (Ovarian cancer cell line): 0.2 µg/mL
- IC50 [1]: > 10 µg/mL

SMILES: CN(C)c1ccc2nc3ccc(N(C)C)cc3[s+]c2c1.O=[N+]([O-])c1ccc(NN=C(c2ccc(O)cc2)c2ccc(O)cc2)c([N+](=O)[O-])c1.[Cl-]
- Activity (Rattus norvegicus): 9 ng/mL
- IC50 (Homo sapiens): > 10 µg/mL
- IC50 (Breast cancer cell line): 2.5 µg/mL
- IC50 (Ovarian cancer cell line): 2 µg/mL
- IC50 [1]: 2 µg/mL
- IC50 (Melanoma cell; melanoma cell): 1 µg/mL
